Data: PubChem BioAssay AID248 (DTP/NCI, 2004)
Several values for one entry are separate records, joined by “and”; a condition that tells them apart may be missing. Identical values can stand only once. Inconclusive results and toxic doses are left out. No stated cut-off is given here; in the data, active means T/C of 150% or more; inactive means T/C below 125%.

System: L1210 leukemia ip in BDF1 mice, survival T/C
Assay: NCI In Vivo Anticancer Drug Screen. Data for tumor model L1210 Leukemia (intraperitoneal) in B6D2F1 (BDF1) mice
Settings: endpoint: mean survival time, higher = longer survival
Procedure, shortened: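 Tumor was transplanted into mice, which were then dosed with test compound or vehicle alone. Survival was recorded for each group, and the treated figure was expressed relative to the control figure.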

[1] = dose: 100.0 mg/kg/injection, schedule: Q01DX009 (ip), vehicle: saline with Tween-80
[2] = dose: 200.0 mg/kg/injection, schedule: Q01DX009 (ip), vehicle: saline with Tween-80
[3] = dose: 100.0 mg/kg/injection, schedule: Q04DX003 (ip), vehicle: saline
[4] = dose: 200.0 mg/kg/injection, schedule: Q04DX003 (ip), vehicle: saline
[5] = dose: 100.0 mg/kg/injection, schedule: Q04DX003 (ip), vehicle: saline with Tween-80
[6] = dose: 200.0 mg/kg/injection, schedule: Q04DX003 (ip), vehicle: saline with Tween-80
[7] = dose: 400.0 mg/kg/injection, schedule: Q04DX003 (ip), vehicle: saline with Tween-80
[8] = dose: 400.0 mg/kg/injection, schedule: Q04DX003 (ip), vehicle: saline
[9] = dose: 50.0 mg/kg/injection, schedule: Q01DX009 (ip), vehicle: saline with Tween-80
[10] = dose: 100.0 mg/kg/injection, schedule: Q04DX002 (sc), vehicle: olive oil, sesame oil, peanut oil
[11] = dose: 200.0 mg/kg/injection, schedule: Q04DX002 (sc), vehicle: olive oil, sesame oil, peanut oil
[12] = dose: 400.0 mg/kg/injection, schedule: Q04DX002 (sc), vehicle: olive oil, sesame oil, peanut oil
[13] = dose: 100.0 mg/kg/injection, schedule: Q01DX001 (ip), vehicle: carboxymethylcellulose (CMC)
[14] = dose: 200.0 mg/kg/injection, schedule: Q01DX001 (ip), vehicle: carboxymethylcellulose (CMC)
[15] = dose: 400.0 mg/kg/injection, schedule: Q01DX001 (ip), vehicle: carboxymethylcellulose (CMC)
[16] = dose: 100.0 mg/kg/injection, schedule: Q04DX003 (ip), vehicle: Klucel (hydroxypropylcellulose) (HPC)
[17] = dose: 200.0 mg/kg/injection, schedule: Q04DX003 (ip), vehicle: Klucel (hydroxypropylcellulose) (HPC)
[18] = dose: 400.0 mg/kg/injection, schedule: Q04DX003 (ip), vehicle: Klucel (hydroxypropylcellulose) (HPC)
[19] = dose: 100.0 mg/kg/injection, schedule: Q01DX009 (ip), vehicle: Klucel (hydroxypropylcellulose) (HPC)
[20] = dose: 200.0 mg/kg/injection, schedule: Q01DX009 (ip), vehicle: Klucel (hydroxypropylcellulose) (HPC)
[21] = dose: 400.0 mg/kg/injection, schedule: Q01DX009 (ip), vehicle: Klucel (hydroxypropylcellulose) (HPC)

Measured: T/C

CCC(=O)NC1Cc2cc(C)cc(C)c21 (centres undefined)
inactive: dose: 25.0 mg/kg/injection, schedule: Q04DX002 (ip), vehicle: Klucel (hydroxypropylcellulose) (HPC) 113 % of control | dose: 50.0 mg/kg/injection, schedule: Q04DX002 (ip), vehicle: Klucel (hydroxypropylcellulose) (HPC) 92 % of control | dose: 100.0 mg/kg/injection, schedule: Q04DX002 (ip), vehicle: Klucel (hydroxypropylcellulose) (HPC) 100 % of control

CC(=O)Oc1cccc(C)c1
inactive: [1] 104 % of control | [2] 106 % of control

CN1CCN(CCCN2C(c3ccccc3)C2c2ccccc2)CC1 (centres undefined)
inactive: dose: 50.0 mg/kg/injection, schedule: Q04DX003 (ip), vehicle: saline 101 % of control | [3] 93 % of control | [4] 93 % of control

CC(C)(C(Cl)Cl)S(=O)(=O)O (tested in a mixture with another compound)
inactive: dose: 9.0 mg/kg/injection, schedule: Q01DX001 (ip), vehicle: other 95 % of control | dose: 18.0 mg/kg/injection, schedule: Q01DX001 (ip), vehicle: other 106 % of control | dose: 37.0 mg/kg/injection, schedule: Q01DX001 (ip), vehicle: other 103 % of control | dose: 75.0 mg/kg/injection, schedule: Q01DX001 (ip), vehicle: other 98 % of control | dose: 75.0 mg/kg/injection, schedule: Q01DX009 (ip), vehicle: saline with Tween-80 107 % of control | dose: 75.0 mg/kg/injection, schedule: Q04DX003 (ip), vehicle: other 111 % of control | dose: 150.0 mg/kg/injection, schedule: Q01DX001 (ip), vehicle: other 101 % of control | dose: 150.0 mg/kg/injection, schedule: Q01DX009 (ip), vehicle: saline with Tween-80 105 % of control | dose: 150.0 mg/kg/injection, schedule: Q04DX003 (ip), vehicle: other 118 % of control | dose: 300.0 mg/kg/injection, schedule: Q01DX001 (ip), vehicle: other 113 % of control | dose: 300.0 mg/kg/injection, schedule: Q01DX009 (ip), vehicle: saline with Tween-80 102 % of control | dose: 300.0 mg/kg/injection, schedule: Q04DX003 (ip), vehicle: other 116 % of control

O=c1c2ccccc2c2c3c1cccc3c1cccc3c(=O)c4ccccc4c2c31
inactive: [5] 98 % of control | [6] 101 % of control | [7] 104 % of control

CSCS(C)=O (centres undefined)
inactive: [3] 104 % of control | [4] 103 % of control | [8] 103 % of control

C=CCOc1ccccc1OC
inactive: [9] 96 % of control | [1] 100 % of control | [5] 103 % of control | [2] 95 % of control | [6] 112 % of control

C/C(=N\Nc1nc2ccccc2s1)c1ccc2c(c1)Sc1ccccc1O2
inactive: dose: 75.0 mg/kg/injection, schedule: Q04DX003 (ip), vehicle: saline 87 % of control | dose: 150.0 mg/kg/injection, schedule: Q04DX003 (ip), vehicle: saline 90 % of control

CCC(Cl)COP(=O)(OCC(Cl)CC)O/C(C)=C(\C)OP(=S)(OCC(Cl)CC)OCC(Cl)CC (centres undefined)
inactive: [10] 108 % of control | [11] 102 % of control | [12] 102 % of control

CC(Br)C(=O)NC(Cc1ccccc1)C(=O)O (centres undefined)
inactive: dose: 100.0 mg/kg/injection, schedule: Q01DX009 (ip), vehicle: alcohol 93 % of control | dose: 100.0 mg/kg/injection, schedule: Q04DX003 (ip), vehicle: other 104 % of control | [5] 94 % of control | dose: 200.0 mg/kg/injection, schedule: Q01DX009 (ip), vehicle: alcohol 100 % of control | dose: 200.0 mg/kg/injection, schedule: Q04DX003 (ip), vehicle: other 104 % of control and 88 % of control | [6] 96 % of control | dose: 400.0 mg/kg/injection, schedule: Q01DX009 (ip), vehicle: alcohol 90 % of control | dose: 400.0 mg/kg/injection, schedule: Q04DX003 (ip), vehicle: other 92 % of control and 88 % of control | [7] 91 % of control

CCc1c(O)nc2ccccn2c1=O
inactive: [13] 98 % of control | [14] 109 % of control | [15] 113 % of control

CCOC(=O)NNc1ccccc1
inactive: dose: 100.0 mg/kg/injection, schedule: Q01DX001 (ip), vehicle: saline 102 % of control | dose: 200.0 mg/kg/injection, schedule: Q01DX001 (ip), vehicle: saline 97 % of control

CCN(CCOC(=O)Nc1ccccc1F)c1ccccc1
inactive: [1] 98 % of control | [2] 115 % of control | dose: 400.0 mg/kg/injection, schedule: Q01DX009 (ip), vehicle: saline with Tween-80 112 % of control

Cc1cc(C(=O)O)c(C)cc1SSc1cc(C)c(C(=O)O)cc1C
inactive: dose: 75.0 mg/kg/injection, schedule: Q01DX001 (ip), vehicle: carboxymethylcellulose (CMC) 94 % of control | dose: 150.0 mg/kg/injection, schedule: Q01DX001 (ip), vehicle: carboxymethylcellulose (CMC) 94 % of control | dose: 300.0 mg/kg/injection, schedule: Q01DX001 (ip), vehicle: carboxymethylcellulose (CMC) 88 % of control

O=S(=O)(Cc1ncc2cnccn12)c1ccccc1
inactive: [3] 95 % of control | [4] 103 % of control | [8] 104 % of control

O=C1OC(c2ccc(Cl)cc2)=N/C1=C\c1ccc(Cl)c(Cl)c1
inactive: dose: 100.0 mg/kg/injection, schedule: Q04DX002 (ip), vehicle: saline 106 % of control | dose: 200.0 mg/kg/injection, schedule: Q04DX002 (ip), vehicle: saline 92 % of control | dose: 400.0 mg/kg/injection, schedule: Q04DX002 (ip), vehicle: saline 100 % of control

N=C(N)SCc1c(-c2ccccc2)oc(-c2ccccc2)c1CSC(=N)N
inactive: dose: 6.25 mg/kg/injection, schedule: Q01DX009 (ip), vehicle: saline with Tween-80 103 % of control | dose: 12.5 mg/kg/injection, schedule: Q01DX009 (ip), vehicle: saline with Tween-80 101 % of control | dose: 12.5 mg/kg/injection, schedule: Q04DX003 (ip), vehicle: saline with Tween-80 97 % of control | dose: 25.0 mg/kg/injection, schedule: Q04DX003 (ip), vehicle: saline with Tween-80 101 % of control

O=C(O)CSCc1ccccc1
inactive: dose: 25.0 mg/kg/injection, schedule: Q01DX009 (ip), vehicle: saline with Tween-80 102 % of control | [9] 95 % of control | [1] 100 % of control and 102 % of control | [16] 94 % of control | [17] 100 % of control | [18] 102 % of control

CC(C)CCC[C@@H](C)[C@H]1CC[C@H]2[C@@H]3CCC(=O)[C@](C)(CCC(=O)O)[C@H]3CC[C@]12C
inactive: dose: 50.0 mg/kg/injection, schedule: Q04DX003 (ip), vehicle: alcohol 102 % of control | dose: 100.0 mg/kg/injection, schedule: Q04DX003 (ip), vehicle: alcohol 98 % of control | dose: 200.0 mg/kg/injection, schedule: Q04DX003 (ip), vehicle: alcohol 102 % of control

CC1(C)COC(c2ccc3c(c2)OCO3)OC1
inactive: [13] 96 % of control | [14] 97 % of control | [15] 94 % of control

CC(C)C1CCC2(CC1)CC(=O)N(CCC[N+](C)(C)C)C(=O)C2
inactive: dose: 50.0 mg/kg/injection, schedule: Q01DX001 (ip), vehicle: carboxymethylcellulose (CMC) 96 % of control

CN(CCN(C)CP(c1ccccc1)c1ccccc1)CP(c1ccccc1)c1ccccc1
inactive: [10] 96 % of control | [11] 104 % of control | [12] 110 % of control

O=C(Oc1ccccc1)c1ccc(Cl)cc1
inactive: [19] 98 % of control | [16] 102 % of control | [20] 95 % of control | [17] 101 % of control | [21] 98 % of control | [18] 98 % of control

O=C(COc1ccc(Cl)cc1Cl)NCc1ccc(Cl)cc1
inactive: [19] 91 % of control | [16] 112 % of control | [20] 96 % of control | [17] 96 % of control | [21] 94 % of control | [18] 95 % of control
